From patent US7459453B2, “Pyridazin-3(2H)-one derivatives as PDE4 inhibitors” (Laboratorios Almirall, S.A., priority 2002, dated 2008)

System: PDE4
Test: PDE4 Assay Procedure ([3H]-cAMP SPA)
Type: biochemical
Settings: 15 nM [3H]-cAMP, SPA beads, 1 hour at room temperature; compounds tested from 10 μM to 10 pM
Method: Compounds to be tested were resuspended in DMSO at a stock concentration of 1 mM. The compounds were tested at different concentrations varying from 10 μM to 10 pM to calculate an IC50. These dilutions were done in 96-well plates. In some cases, plates containing diluted compounds were frozen before being assayed. In these cases, the plates were thawed at room temperature and stirred for 15 minutes.
Ten microliters of the diluted compounds were poured into a “low binding” assay plate. Eighty microliters of reaction mixture containing 50 mM Tris pH 7.5, 8.3 mM MgCl2, 1.7 mM EGTA, and 15 nM [3H]-cAMP were added to each well. The reaction was initiated by adding ten microliters of a solution containing PDE4. The plate was then incubated under stirring for 1 hour at room temperature. After incubation the reaction was stopped with 50 microliters of SPA beads, and the reaction was allowed to incubate for another 20 minutes at room temperatures before measuring radioactivity using standard instrumentation.
The reaction mixture was prepared by adding 90 ml of H2O to 10 ml of 10× assay buffer (500 mM Tris pH 7.5, 83 mM MgCl2, 17 mM EGTA), and 40 microliters 1 μCi/μL [3H]-cAMP. SPA beads solution was prepared by adding 500 mg to […] H2O for a final concentration of 20 mg/ml beads and 18 mM zinc sulphate.

| IC50 [nM] | Structure (SMILES) |
| --- | --- |
| 14 | CCn1nc(-c2cccc(Cl)c2)c(C(C)=O)c(Nc2ccc(C(=O)O)cc2)c1=O [Example 86, 4-[5-Acetyl-6-(3-chlorophenyl)-2-ethyl-3-oxo-2,3-dihydropyridazin-4-ylamino]benzoic acid] |
| 20 | CCn1nc(-c2ccccc2)c(C(C)=O)c(Nc2ccc(C#N)cc2)c1=O [Example 231, 4-[(5-Acetyl-2-ethyl-3-oxo-6-phenyl-2,3-dihydropyridazin-4-yl)amino]benzonitrile] |
| 25 | CCn1nc(-c2ccc(F)cc2)c(C(C)=O)c(Nc2ccc(CO)cc2)c1=O [Example 181, 5-Acetyl-2-ethyl-6-(4-fluorophenyl)-4-{[4-(hydroxymethyl)phenyl]amino}pyridazin-3(2H)-one] |
| 6 | CCn1nc(-c2ccccc2)c(C(C)=O)c(Nc2cccc(C#N)c2)c1=O [Example 72, 3-[(5-Acetyl-2-ethyl-3-oxo-6-phenyl-2,3-dihydropyridazin-4-yl)amino]benzonitrile] |
| 9.3 | CCn1nc(-c2ccccc2)c(C(C)=O)c(Nc2ccc(F)c(Cl)c2)c1=O [Example 190, 5-Acetyl-4-[(3-chloro-4-fluorophenyl)amino]-2-ethyl-6-phenylpyridazin-3(2H)-one] |
| 0.26 | CC(=O)c1c(-c2ccccc2)nn(CC2CC2)c(=O)c1Nc1cc(F)cc(F)c1 [Example 109, 5-Acetyl-2-cyclopropylmethyl-4-(3,5-difluoro-phenylamino)-6-phenyl-2H-pyridazin-3-one] |
| 2 | CCn1nc(-c2ccccc2)c(C(C)=O)c(Nc2cccc3ccccc23)c1=O [Example 8, 5-Acetyl-2-ethyl-4-(1-naphthylamino)-6-phenylpyridazin-3(2H)-one] |
| 19 | CCn1nc(-c2cccc(F)c2)c(C(C)=O)c(Nc2ccc(CO)cc2)c1=O [Example 176, 5-Acetyl-2-ethyl-6-(3-fluorophenyl)-4-{[4-(hydroxymethyl)phenyl]amino}pyridazin-3(2H)-one] |
| 7.7 | CCn1nc(-c2ccccc2)c(C(C)=O)c(Nc2cccc(F)c2)c1=O [Example 1, 5-Acetyl-2-ethyl-4-[(3-fluorophenyl)amino]-6-phenylpyridazin-3(2H)-one] |
| 9.5 | CCn1nc(-c2ccc(SC)cc2)c(C(C)=O)c(Nc2ccc(C(=O)O)cc2)c1=O [Example 23, 4-({5-Acetyl-2-ethyl-6-[4-(methylthio)phenyl]-3-oxo-2,3-dihydropyridazin-4-yl}amino)benzoic acid] |
| 13 | CCn1nc(-c2ccccc2)c(C(C)=O)c(Nc2cccc(C(N)=O)c2)c1=O [Example 232, 3-[(5-Acetyl-2-ethyl-3-oxo-6-phenyl-2,3-dihydropyridazin-4-yl)amino]benzamide] |
| 15 | CCn1nc(-c2ccccc2)c(C(C)=O)c(Nc2c(F)cc(F)cc2F)c1=O [Example 263, 5-Acetyl-2-ethyl-6-phenyl-4-[(2,4,6-trifluorophenyl)amino]pyridazin-3(2H)-one] |
| 11 | CCn1nc(-c2ccccc2)c(C(C)=O)c(Nc2cc(F)c(F)c(F)c2)c1=O [Example 264, 5-Acetyl-2-ethyl-6-phenyl-4-[(3,4,5-trifluorophenyl)amino]pyridazin-3(2H)-one] |
| 8.7 | CCn1nc(-c2cccc(F)c2)c(C(C)=O)c(Nc2cccc(Cl)c2)c1=O [Example 92, 5-Acetyl-4-[(3-chlorophenyl)amino]-2-ethyl-6-(3-fluorophenyl)pyridazin-3(2H)-one] |
| 5.5 | CCn1nc(-c2ccccc2)c(C(=O)OCc2ccccc2)c(Nc2cccc(Cl)c2)c1=O [Example 274, Benzyl 5-[(3-chlorophenyl)amino]-1-ethyl-6-oxo-3-phenyl-1,6-dihydropyridazine-4-carboxylate] |
| 12 | CCn1nc(-c2ccccc2)c(C(C)=O)c(Nc2cccc(Cl)c2)c1=O [Example 52, 5-Acetyl-4-[(3-chlorophenyl)amino]-2-ethyl-6-phenylpyridazin-3(2H)-one] |
| 7.1 | CCn1nc(-c2ccccc2)c(C(=O)CCc2ccccc2)c(Nc2cccc(Cl)c2)c1=O [Example 120, 4-[(3-Chlorophenyl)amino]-2-ethyl-6-phenyl-5-(3-phenylpropanoyl)pyridazin-3(2H)-one] |
| 20 | CCn1nc(-c2ccc([S+](C)[O-])cc2)c(C(C)=O)c(Nc2ccccc2C)c1=O (centres unmarked) [Example 31, 5-Acetyl-2-ethyl-4-[(2-methylphenyl)amino]-6-[4-(methylsulphinyl)phenyl]pyridazin-3(2H)-one] |
| 7.8 | CC(=O)c1c(-c2ccccc2)nn(CC2CC2)c(=O)c1Nc1cccc(F)c1 [Example 45, 5-Acetyl-2-(cyclopropylmethyl)-4-[(3-fluorophenyl)amino]-6-phenylpyridazin-3(2H)-one] |
| 9.3 | CCn1nc(-c2ccccc2)c(C(C)=O)c(Nc2ccccc2Cl)c1=O [Example 13, 5-Acetyl-4-[(2-chlorophenyl)amino]-2-ethyl-6-phenylpyridazin-3(2H)-one] |
| 0.5 | CCn1nc(-c2cccc([N+](=O)[O-])c2)c(C(C)=O)c(Nc2cccc3ccccc23)c1=O [Example 97, 5-Acetyl-2-ethyl-4-(naphthalen-1-ylamino)-6-(3-nitrophenyl)pyridazin-3(2H)-one] |
| 16 | CC(=O)c1c(-c2ccccc2)nn(C)c(=O)c1Nc1cc(F)cc(F)c1 [Example 39, 5-Acetyl-4-[(3,5-difluorophenyl)amino]-2-methyl-6-phenylpyridazin-3(2H)-one] |
| 8.9 | CC(=O)c1c(-c2ccccc2)nn(CC2CC2)c(=O)c1Nc1cccc(Cl)c1 [Example 46, 5-Acetyl-4-[(3-chlorophenyl)amino]-2-(cyclopropylmethyl)-6-phenylpyridazin-3(2H)-one] |
| 5.9 | CCn1nc(-c2cccc(F)c2)c(C(C)=O)c(Nc2cccc(F)c2)c1=O [Example 91, 5-Acetyl-2-ethyl-4-[(3-fluorophenyl)amino]-6-(3-fluorophenyl)pyridazin-3(2H)-one] |
| 6.1 | CCn1nc(-c2cccc(Cl)c2)c(C(C)=O)c(Nc2cccc(F)c2)c1=O [Example 88, 5-Acetyl-6-(3-chlorophenyl)-2-ethyl-4-[(3-fluorophenyl)amino]pyridazin-3(2H)-one] |
| 14 | CCn1nc(-c2ccccc2)c(C(C)=O)c(Nc2ccc(C(=O)O)cc2)c1=O [Example 50, 4-[(5-Acetyl-2-ethyl-3-oxo-6-phenyl-2,3-dihydropyridazin-4-yl)amino]benzoic acid] |
